The subject of this test is cortical spreading depression (CSD). In words: Optically triggered cortical spreading depression (CSD) threshold in mice with skull-attached microchip. Format: in vivo. The conditions noted are these: Thy1/ChR2 mice under isoflurane anesthesia, compared with the wake state; data not shown. On the procedure: Cortical spreading depression (CSD) in freely behaving mice was triggered optically by administering sequential pulses of light with increasing duration until CSD was observed based on OIS. After each light pulse, OIS was monitored for at least 10 minutes for the occurrence of CSD. If CSD occurred, no further stimulus pulses were delivered, whereas if no CSD occurred, then the duration was increased with the subsequent pulse. To trigger CSD under anesthesia, the cage that the animal was housed in was rapidly flushed with 2% isoflurane in a 20/80% O2/N2 gas mixture. After the animal lost consciousness, the isoflurane was reduced to 1.5% to sustain anesthesia. For prolonged experiments a heating pad set at 37° C. was placed under the cage and a small paper blanket was placed over the animal to maintain its core temperature. Breathing pattern and paw color were continuously monitored. Anesthesia was maintained until CBV returned to baseline levels at the end of the CSD. […] After each light pulse, OIS was monitored for a t least 10 minutes for a CSD, If CSD occurred, no further pulses were delivered. If a baseline threshold was well determined, stimulations were started 3-4 steps before that baseline for subsequent CSDs. […] These measurements illustrate that threshold for optically triggering CSD can be quantified based upon the duration of light stimulation required to evoke CSD. […]

Regarding `FC(F)OC(Cl)C(F)(F)F` (stereo not shown) [isoflurane], the “threshold for triggering CSD (duration of blue light stimulation required to evoke CSD)” value is listed as “significantly lower than in the wake state”.

For the origin of these results see patent US20240041386A1, “MICROCHIP BASED RECORDING OF NEUROVASCULAR ACTIVITY AND BEHAVIOR” (NEUREFLECT, INC., priority 2021, published 2024).
